From patent US8952024B2, “Herbicidal pyrimidone derivatives” (E I du Pont de Nemours and Company, priority 2009, dated 2015)

What was measured:
Assay in all cases: Test B pre-/postemergence plant response
Format in all cases: in vivo
[1] = system: cocklebur (Xanthium strumarium)
Summary of the method: (§1)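 Compound in solvent + surfactant applied pre-em (loam/sand) or post-em (plants 2–18 cm, peat medium); greenhouse hold 13–15 days; visual 0–100 control score.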

[2] = system: large crabgrass (Digitaria sanguinalis)
Summary of the method: as §1

[3] = system: green foxtail (Setaria viridis)
Summary of the method: as §1

[4] = system: velvetleaf (Abutilon theophrasti)
Summary of the method: as §1

corn (Zea mays) = system: corn (Zea mays)
Summary of the method: as §1

[5] = system: goosegrass (Eleusine indica)
Summary of the method: as §1

[6] = system: yellow nutsedge (Cyperus esculentus)
Summary of the method: as §1

[7] = system: blackgrass (Alopecurus myosuroides)
Summary of the method: as §1

soybean (Glycine max) = system: soybean (Glycine max)
Summary of the method: as §1

[8] = system: giant foxtail (Setaria faberii)
Summary of the method: as §1

wild oat (Avena fatua) = system: wild oat (Avena fatua)
Summary of the method: as §1

[9] = system: woolly cupgrass (Eriochloa villosa)
Summary of the method: as §1

[10] = system: Surinam grass (Brachiaria decumbens)
Summary of the method: as §1

[11] = system: downy bromegrass (Bromus tectorum)
Summary of the method: as §1

kochia (Kochia scoparia) = settings: Postemergence
Summary of the method: as §1

[12] = system: morningglory (Ipomoea coccinea)
Summary of the method: as §1

[13] = system: johnsongrass (Sorghum halepense)
Summary of the method: as §1

[14] = Postemergence, 31 g ai/ha, 0 to 100 scale (0 no effect, 100 complete control)
[15] = Postemergence, 125 g ai/ha, scale 0 to 100 (0 no effect, 100 complete control)
[16] = Postemergence, 250 g ai/ha, scale 0 to 100 (0 no effect, 100 complete control), 13 to 15 days
[17] = Postemergence, 62 g ai/ha, scale 0 to 100 (0 no effect, 100 complete control)
[18] = Preemergence, 125 g ai/ha, scale 0 to 100, 0 no effect, 100 complete control
[19] = Preemergence, 250 g ai/ha, 0 to 100 scale
[20] = Preemergence, 31 g ai/ha, scale 0 to 100 (0 no effect, 100 complete control)
[21] = Preemergence, 62 g ai/ha, scale 0 to 100, 0 no effect, 100 complete control

CCCc1ncc(C(=O)C2=C(O)CCCC2=O)c(=O)n1-c1ccccc1 [Compound 217]
Plant response rating, Cocklebur [1, 14]: 80 | Plant response rating, Cocklebur [1, 15]: 98 | Plant response rating, Cocklebur [1, 16]: 100 | Plant response rating, Cocklebur [1, 17]: 98 | Plant response rating, Cocklebur [1, 18]: 85 | Cocklebur plant response rating [1, 19]: 85 | Plant response rating, Crabgrass, Large [2, 14]: 80 | Plant response rating, Crabgrass, Large [2, 15]: 90 | Plant response rating, Crabgrass, Large [2, 16]: 98 | Plant response rating, Crabgrass, Large [2, 17]: 85 | Plant response rating, Crabgrass, Large [2, 20]: 95 | Plant response rating, Crabgrass, Large [2, 21]: 100 | Plant response rating, Crabgrass, Large [2, 18]: 100 | Crabgrass, Large plant response rating [2, 19]: 100 | Plant response rating, Foxtail, Green [3, 14]: 55 | Plant response rating, Foxtail, Green [3, 15]: 85 | Plant response rating, Foxtail, Green [3, 16]: 90 | Plant response rating, Foxtail, Green [3, 17]: 60 | Plant response rating, Foxtail, Green [3, 20]: 0 | Plant response rating, Foxtail, Green [3, 21]: 0 | Plant response rating, Foxtail, Green [3, 18]: 0 | Foxtail, Green plant response rating [3, 19]: 90 | Plant response rating, Velvetleaf [4, 14]: 98 | Plant response rating, Velvetleaf [4, 16]: 100 | Plant response rating, Velvetleaf [4, 17]: 98 | Plant response rating, Velvetleaf [4, 20]: 95 | Plant response rating, Velvetleaf [4, 21]: 100 | Plant response rating, Velvetleaf [4, 18]: 100 | Velvetleaf plant response rating [4, 19]: 100 | Plant response rating, Corn (corn (Zea mays); [14]): 0 | Plant response rating, Corn (corn (Zea mays); [15]): 25 | Plant response rating, Corn (corn (Zea mays); [16]): 35 | Plant response rating, Corn (corn (Zea mays); [17]): 10 | Plant response rating, Corn (corn (Zea mays); [20]): 0 | Plant response rating, Corn (corn (Zea mays); [21]): 0 | Plant response rating, Corn (corn (Zea mays); [18]): 0 | Corn plant response rating (corn (Zea mays); [19]): 0 | Plant response rating, Goosegrass [5, 14]: 80 | Plant response rating, Goosegrass [5, 15]: 85 | Plant response rating, Goosegrass [5, 16]: 95 | Plant response rating, Goosegrass [5, 17]: 80 | Plant response rating, Goosegrass [5, 20]: 95 | Plant response rating, Goosegrass [5, 21]: 98 | Plant response rating, Goosegrass [5, 18]: 100 | Goosegrass plant response rating [5, 19]: 100 | Plant response rating, Nutsedge, Yellow [6, 14]: 10 | Plant response rating, Nutsedge, Yellow [6, 15]: 70 | Plant response rating, Nutsedge, Yellow [6, 16]: 70 | Plant response rating, Nutsedge, Yellow [6, 17]: 60 | Plant response rating, Nutsedge, Yellow [6, 20]: 60 | Plant response rating, Nutsedge, Yellow [6, 21]: 65 | Plant response rating, Nutsedge, Yellow [6, 18]: 70 | Nutsedge, Yellow plant response rating [6, 19]: 90 | Plant response rating, Blackgrass [7, 14]: 0 | Plant response rating, Blackgrass [7, 15]: 30 | Plant response rating, Blackgrass [7, 16]: 30 | Plant response rating, Blackgrass [7, 17]: 5 | Plant response rating, Blackgrass [7, 20]: 0 | Plant response rating, Blackgrass [7, 21]: 0 | Plant response rating, Blackgrass [7, 18]: 0 | Blackgrass plant response rating [7, 19]: 0 | Plant response rating, Soybean (soybean (Glycine max); [14]): 75 | Plant response rating, Soybean (soybean (Glycine max); [16]): 98 | Plant response rating, Soybean (soybean (Glycine max); [17]): 85 | Plant response rating, Soybean (soybean (Glycine max); [20]): 0 | Plant response rating, Soybean (soybean (Glycine max); [21]): 0 | Plant response rating, Soybean (soybean (Glycine max); [18]): 0 | Soybean plant response rating (soybean (Glycine max); [19]): 0 | Plant response rating, Foxtail, Giant [8, 14]: 70 | Plant response rating, Foxtail, Giant [8, 15]: 85 | Plant response rating, Foxtail, Giant [8, 16]: 90 | Plant response rating, Foxtail, Giant [8, 17]: 75 | Plant response rating, Foxtail, Giant [8, 20]: 5 | Plant response rating, Foxtail, Giant [8, 21]: 40 | Plant response rating, Foxtail, Giant [8, 18]: 75 | Foxtail, Giant plant response rating [8, 19]: 85 | Plant response rating, Oat, Wild (wild oat (Avena fatua); [14]): 30 | Plant response rating, Oat, Wild (wild oat (Avena fatua); [16]): 85 | Plant response rating, Oat, Wild (wild oat (Avena fatua); [17]): 40 | Plant response rating, Oat, Wild (wild oat (Avena fatua); [20]): 0 | Plant response rating, Oat, Wild (wild oat (Avena fatua); [21]): 0 | Plant response rating, Oat, Wild (wild oat (Avena fatua); [18]): 0 | Oat, Wild plant response rating (wild oat (Avena fatua); [19]): 0 | Plant response rating, Cupgrass, Woolly [9, 14]: 25 | Plant response rating, Cupgrass, Woolly [9, 15]: 45 | Plant response rating, Cupgrass, Woolly [9, 16]: 55 | Plant response rating, Cupgrass, Woolly [9, 17]: 45 | Plant response rating, Cupgrass, Woolly [9, 20]: 0 | Plant response rating, Cupgrass, Woolly [9, 21]: 5 | Plant response rating, Cupgrass, Woolly [9, 18]: 65 | Cupgrass, Woolly plant response rating [9, 19]: 80 | Plant response rating, Surinam Grass [10, 14]: 70 | Plant response rating, Surinam Grass [10, 16]: 95 | Plant response rating, Surinam Grass [10, 17]: 80 | Plant response rating, Surinam Grass [10, 20]: 45 | Plant response rating, Surinam Grass [10, 21]: 75 | Plant response rating, Surinam Grass [10, 18]: 85 | Surinam Grass plant response rating [10, 19]: 90 | Plant response rating, Bromegrass, Downy [11, 14]: 10 | Plant response rating, Bromegrass, Downy [11, 15]: 40 | Plant response rating, Bromegrass, Downy [11, 16]: 65 | Plant response rating, Bromegrass, Downy [11, 17]: 15 | Plant response rating, Bromegrass, Downy [11, 20]: 0 | Plant response rating, Bromegrass, Downy [11, 21]: 0 | Plant response rating, Bromegrass, Downy [11, 18]: 0 | Bromegrass, Downy plant response rating [11, 19]: 0 | Plant response rating, Kochia (kochia (Kochia scoparia); 31 g ai/ha, 0 to 100 scale (0 no effect, 100 complete control)): 75 | Plant response rating, Kochia (kochia (Kochia scoparia); 125 g ai/ha, scale 0 to 100 (0 no effect, 100 complete control)): 100 | Plant response rating, Kochia (kochia (Kochia scoparia); 250 g ai/ha, scale 0 to 100 (0 no effect, 100 complete control), 13 to 15 days): 100 | Plant response rating, Kochia (kochia (Kochia scoparia); 62 g ai/ha, scale 0 to 100 (0 no effect, 100 complete control)): 98 | Plant response rating, Morningglory [12, 14]: 70 | Plant response rating, Morningglory [12, 15]: 80 | Plant response rating, Morningglory [12, 16]: 80 | Plant response rating, Morningglory [12, 17]: 75 | Plant response rating, Morningglory [12, 20]: 0 | Plant response rating, Morningglory [12, 21]: 0 | Plant response rating, Morningglory [12, 18]: 0 | Morningglory plant response rating [12, 19]: 0 | Plant response rating, Johnsongrass [13, 14]: 0 | Plant response rating, Johnsongrass [13, 15]: 60 | Plant response rating, Johnsongrass [13, 16]: 65 | Plant response rating, Johnsongrass [13, 17]: 60 | Plant response rating, Johnsongrass [13, 20]: 0 | Plant response rating, Johnsongrass [13, 21]: 5 | Plant response rating, Johnsongrass [13, 18]: 20 | Johnsongrass plant response rating [13, 19]: 55
